Results as given in article PMC10226132, “First-in-Class Selective Inhibitors of the Lysine Acetyltransferase KAT8” (Journal of Medicinal Chemistry, 2023).

Tests used:
KAT8 [1] = molecular target: T1, KAT8 (Homo sapiens, UniProt Q9H7Z6); experiment: CETSA target engagement in HT29 cells; assay type: cell-based; details: 100 μM, 4 h, 59 °C
T1 construct: endogenous in cells; host or cells: HT29
Method: Target engagement in cells was determined by CETSA.[65],[66] For CETSA experiments with cells treated in culture, ∼1 × 10^6 HT29 were treated with DMSO (0.5% v/v final) or 100 μM compound for 4 h at 37 °C and 5% CO2 in a humidified incubator. The cells were harvested, washed twice with PBS, and resuspended in PBS with protease inhibitors. The cell suspensions were then distributed into PCR tubes, heated at the indicated temperature in a SimpliAmp Thermal Cycler (Applied Biosystems) for 3 min, and then cooled for another 3 min at rt. The cell suspensions were then lysed by freeze-thawing three times with 3 min incubations in an ethanol/dry ice bath and water bath at 37 °C. The lysates were then centrifuged at 20,000×g for 30 min at 4 °C to remove cellular debris and protein aggregates, and lysates were prepared for WB analysis. Proteins were separated by SDS-PAGE on 13.5% gels and were transferred to nitrocellulose membranes (Biorad Laboratories). Membranes were blocked for 1 h and incubated overnight with the appropriate primary antibody at 4 °C. After incubation, membranes were washed and incubated with the appropriate secondary antibody (Biorad Laboratories) for 1 h at room temperature. […] The band signals were quantified using ImageJ and values normalized to the 37 °C DMSO control.
T1 sequence (Q9H7Z6 whole entry): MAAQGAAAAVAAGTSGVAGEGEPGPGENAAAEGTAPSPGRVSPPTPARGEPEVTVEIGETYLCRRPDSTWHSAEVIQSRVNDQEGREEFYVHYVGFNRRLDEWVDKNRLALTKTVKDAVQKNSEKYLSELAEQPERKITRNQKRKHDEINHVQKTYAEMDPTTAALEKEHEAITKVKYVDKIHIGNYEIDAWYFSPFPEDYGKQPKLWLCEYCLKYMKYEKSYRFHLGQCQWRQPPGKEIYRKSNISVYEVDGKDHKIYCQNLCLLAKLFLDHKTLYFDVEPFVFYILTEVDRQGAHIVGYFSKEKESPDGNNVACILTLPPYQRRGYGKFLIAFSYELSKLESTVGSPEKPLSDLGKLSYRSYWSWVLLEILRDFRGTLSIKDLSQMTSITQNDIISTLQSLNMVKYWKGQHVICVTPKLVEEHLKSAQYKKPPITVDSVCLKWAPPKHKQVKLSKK

KAT2A = molecular target: T2, KAT2A (Homo sapiens, UniProt Q92830); experiment: HotSpot KAT assay, KAT2A; assay type: biochemical; details: 200 μM, NI = no inhibition; for inhibition at 200 µM: read-out: % inhibition at 200 μM KAT2A (15 nM)
T2 construct: human KAT2A (aa 323–837, 15 nM); purchased Reaction Biology Corporation
T2 sequence (Q92830 323-837): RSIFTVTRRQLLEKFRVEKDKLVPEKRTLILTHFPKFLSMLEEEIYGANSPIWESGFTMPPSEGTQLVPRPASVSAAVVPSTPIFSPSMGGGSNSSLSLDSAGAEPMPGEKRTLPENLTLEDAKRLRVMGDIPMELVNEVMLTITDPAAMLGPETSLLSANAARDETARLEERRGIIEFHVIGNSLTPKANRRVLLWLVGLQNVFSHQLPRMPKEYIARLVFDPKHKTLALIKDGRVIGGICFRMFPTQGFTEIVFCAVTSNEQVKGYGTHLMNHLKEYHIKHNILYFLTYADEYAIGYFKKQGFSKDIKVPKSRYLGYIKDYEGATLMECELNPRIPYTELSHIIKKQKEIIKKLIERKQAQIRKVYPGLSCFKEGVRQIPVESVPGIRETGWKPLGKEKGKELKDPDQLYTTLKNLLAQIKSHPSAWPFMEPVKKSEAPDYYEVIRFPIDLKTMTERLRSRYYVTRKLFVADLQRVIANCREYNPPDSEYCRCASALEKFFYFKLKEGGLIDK
Method: The effects of the compounds on other KATs were determined using the HotSpot KAT assay (Reaction Biology Corporation, Malvern, PA, USA) according to the supplier’s procedure. The recombinant catalytic domains of human KAT2A (aa 323–837, 15 nM), KAT2B (aa 492–658, 25 nM), KAT3B (aa 1284–1672, 1 nM), KAT6A (aa 488–778, 10 nM), KAT6B (aa 657–1069, 10 nM), and full length human KAT5 (25 nM) and KAT7 (25 nM) were used. Each enzyme was incubated with the relevant histone peptide [H3 peptide for KAT2A, KAT2B, KAT3B, KAT6A, and KAT7 (2.5–5 μM, depending on the KAT isoform); H2A peptide for KAT5 (1.25 μM); H4 peptide for KAT6B (2.5 μM)] as a substrate and radio-isotope-labeled [^3H]Acetyl-CoA (0.2–1.5 μM, depending on the KAT isoform) as an acetyl donor in the assay buffer [50 mM Tris–HCl (pH 8.0), 50 mM NaCl, 0.1 mM EDTA, 1 mM DTT, 0.1 mM PMSF, 1% DMSO] for 1 h at 30 °C in the presence or absence of various compounds (1% DMSO final) titrated in a 2-fold serial dilution starting at 200 μM. Histone peptide acetylation was assessed by liquid scintillation counting using a Tri-Carb 2800TR Liquid Scintillation Analyzer (Perkin Elmer). Experiments were performed in biological triplicates. Signal reduction compared to control was plotted (as inhibition percentage) as a function of compound concentration. In cases in which an IC50 was calculated, the values were fitted by nonlinear regression (GraphPad Prism 8.0).

KAT8 [2] = molecular target: T3, KAT8 (Homo sapiens, UniProt Q9H7Z6); experiment: SPR-based KAT8 binding assay; details: immobilized KAT8, 25 °C, read-out: equilibrium dissociation constant (KD)
T3 construct: using the previously purified KAT8 (173–458, 5 nM); 6xHis tag with TEV protease cleavage site (N, cleaved yes); made in house; host or cells: E. coli BL21(DE3)
T3 sequence (Q9H7Z6 173-458): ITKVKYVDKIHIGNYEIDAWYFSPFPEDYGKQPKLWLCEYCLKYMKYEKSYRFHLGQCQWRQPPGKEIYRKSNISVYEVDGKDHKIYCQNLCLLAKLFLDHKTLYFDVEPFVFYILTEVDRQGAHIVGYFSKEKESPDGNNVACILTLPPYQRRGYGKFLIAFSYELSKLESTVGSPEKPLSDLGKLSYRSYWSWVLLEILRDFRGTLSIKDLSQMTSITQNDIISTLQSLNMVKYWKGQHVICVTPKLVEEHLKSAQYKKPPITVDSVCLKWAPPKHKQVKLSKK
Method: SPR analyses were performed on a Biacore 3000 optical biosensor (GE Healthcare) equipped with a research-grade CM5 sensor chip. KAT8 was immobilized (30 μg/mL in 10 mM sodium acetate, pH 4.5) at a flow rate of 10 μL/min by using a standard amine-coupling protocol to obtain a density of 12 kRU. One flow cell was left empty for background subtractions. Both compounds, dissolved in DMSO (100%), were diluted in assay buffer (150 mM NaCl, 10 mM HEPES pH 7.4, 0.005% Tween-20), always maintaining a final 1% DMSO concentration. Binding experiments were performed at 25 °C by using a flow rate of 30 μL/min, with 120 s monitoring of association and 200 s monitoring of dissociation. Regeneration of the surfaces was performed, when necessary, by a 10 s injection of 1 mM NaOH.

H4K16Ac in HT29 cells = experiment: Immunofluorescence of H4K16Ac in HT29 cells; assay type: cell-based, human; details: 50 μM, 24 h, compared with control
Method: For IF analysis, 1 × 10^5 HT-29 cells were grown on sterile coverslips. After 24 h, cells were exposed to different compounds for 24 h. IF staining for different acetylated lysine residues of histone H3 (H3K27Ac) and H4 (H4K16Ac) were carried out on PFA-fixed cells blocked with 20% goat serum in PBS and incubated overnight at 4 °C with primary rabbit monoclonal antibodies histone H3K27Ac (D5E4, Rabbit mAb#8173) and H4K16Ac (E2B8W, Rabbit mAb#13534, Cell Signalling Technology). Primary antibodies were detected using rabbit anti-IgG secondary antibodies conjugated with Cy3 (Jackson Immunoresearch 711-165-152). DNA was stained using 0.05 μg/mL 4′,6-diamidino-2-phenylindole (DAPI). The samples were acquired using an Olympus AX70 (Olympus America Inc.) microscope. Serial Z stacks of 0.4 μm thickness were acquired, taking care to cover the entire cell volume. For quantification of fluorescence intensity signals, images of untreated or treated cells were analyzed and processed using opensource Cell Profiler 4.1.3 image analysis software (https://cellprofiler.org/) to measure fluorescence-integrated intensity values for antibody binding relating to individual cells as previously reported.[67]

Row | SMILES | target engagement (stabilization of KAT8 against thermal-induced aggregation) (KAT8 [1]) | % inhibition at 200 μM KAT2A (15 nM) (KAT2A) | inhibition at 200 µM (KAT2A) [%] | Kd (KAT8 [2]) [µM] | reduction in H4K16Ac signal intensity (IF) (H4K16Ac in HT29 cells)
1 | CC1=NN(c2ccc(C(=O)O)cc2)C(=O)/C1=C\c1ccc[nH]1 [Compound 19, (Z)-4-(4-((1H-Pyrrol-2-yl)methylene)-3-methyl-5-oxo-4,5-dihydro-1H-pyrazol-1-yl)benzoic Acid] | stabilize KAT8 against thermal-induced aggregation | did not inhibit | 0 | 4.94 ± 0.18 | 80%
2 | O=C(O)c1ccc(N2N=C(c3ccccc3)/C(=C/c3ccc[nH]3)C2=O)cc1 [Compound 34, (Z)-4-(4-((1H-Pyrrol-2-yl)methylene)-5-oxo-3-phenyl-4,5-dihydro-1H-pyrazol-1-yl)benzoic Acid] | stabilize KAT8 against thermal-induced aggregation | did not inhibit | 0 | 2.04 ± 0.24 | more than 50%
